How the values were obtained:
Assay type in all cases: biochemical
[1] = tested on: Maillard reaction (lysozyme / fructose, dimer formation); test: Maillard reaction-inhibiting effects (lysozyme dimer formation with fructose, SDS-PAGE densitometry); settings: 10 mg/mL lysozyme, 200 mM fructose, pH 7.4, 37° C., 4 days, dimer formation inhibition rate
Description: This Example examined Maillard reaction-inhibiting effects using, as test compounds, the compounds produced in the above-described Examples and the commercially available substances arginine hydroxamate (Compound No. 111), tyrosine hydroxamate (Compound No. 112), and tryptophan hydroxamate (Compound No. 113). More specifically, 10 mg/mL lysozyme, 200 mM fructose, and each of the above-described test compounds dissolved in a 0.4 mM sodium phosphate buffer (pH 7.4) so as to provide a concentrations of 0.1, 0.3, 1, or 3 mM were incubated at 37° C. for 4 days. After the incubation, the samples were subjected to SDS-PAGE, stained with Coomassie Brilliant Blue R-250, and quantitated for the formed dimmers using a densitometer. The Maillard reaction-inhibiting activity was defined as the dimmer formation inhibition rate of a test compound calculated on the basis that the amount of dimmer is 100% in the absence of the test compound, using, as blank, the amount of dimer in the absence of fructose and the test compound.

[2] = Methyl glyoxal-trapping activity test (DMB derivatisation, HPLC); settings: 0.02 mM methyl glyoxal, 0.2 mM test compound, PBS, 37° C., 30 minutes
Description: In 0.2 mL of PBS were incubated 0.02 mM of methyl glyoxal and 0.2 mM of test compound at 37° C. for 30 minutes. Subsequently, a volume of 5 mM DMB (1,2-diamino-4,5-methylenedioxy benzene) solution equivalent to 10 μL of the incubation sample was added, followed by further incubation at 4° C. for 7 hours to react the remaining methyl glyoxal with DMB. After the end of reaction, a 0.4 M phosphate buffer solution (pH 7.2) was added for neutralization, followed by quantitating the modified product of methyl glyoxal-DMB using HPLC.
(§1) HPLC having a YMC-Pack Pro C18 column (φ4.6 mm×150 mm) and employing 5 mM sodium phosphate buffer (pH 7.4)-25% acetonitrile as a mobile phase was used at a flow rate of 0.7 mL/min to determine fluorescence strength at Ex352 nm and Em385 nm.
The proportion of methyl glyoxal trapped by the test compound was calculated as % trapping activity, based on the quantitative value of the total modified product of methyl glyoxal-DMB in the absence of the test compound.

[3] = Glyoxal-trapping activity test (DMB derivatisation, HPLC); settings: 0.02 mM glyoxal, 0.2 mM test compound, PBS, 37° C., 30 minutes
Description: In 0.2 mL of PBS were incubated 0.02 mM of glyoxal and 0.2 mM of test compound at 37° C. for 30 minutes. Subsequently, a volume of 5 mM DMB (1,2-diamino-4,5-methylenedioxy benzene) solution equivalent to 10 μL of the incubation sample was added, followed by further incubation at 4° C. for 7 hours to react the remaining methyl glyoxal with DMB. After the end of reaction, a 0.4 M phosphate buffer solution (pH 7.2) was added for neutralization, followed by quantitating the modified product of glyoxal-DMB using HPLC.
as §1
The proportion of glyoxal trapped by the test compound was calculated as % trapping activity, based on the quantitative value of the total modified product of glyoxal-DMB in the absence of the test compound.

[4] = test compound concentration 0.1 mM
[5] = test compound concentration 0.3 mM
[6] = test compound concentration 1 mM
[7] = test compound concentration 3 mM

| SMILES | Maillard reaction-inhibiting activity (%) [1, 4] | Maillard reaction-inhibiting activity (%) [1, 5] | Maillard reaction-inhibiting activity (%) [1, 6] | Maillard reaction-inhibiting activity (%) [1, 7] | Methyl-glyoxal-trapping activity (% trapping) [2] | Glyoxal-trapping activity (% trapping) [3] |
| --- | --- | --- | --- | --- | --- | --- |
| N#Cc1ccc(Cn2cc(CC(N)C(=O)NO)c3ccccc32)cc1 (racemic) [Compound No. 107, (RS)-2-amino-3-[1-(4-cyanobenzyl)-1H-indol-3-yl]-N-hydroxypropionamide] | 101% | 100% | 101% | 101% | 87.3 ± 0.5 % trapping | 69.8 ± 1.2 % trapping |
| N=C(N)NN [Aminoguanidine, reference compound] | −3% | −5% | 7% | 26% | 52.8 ± 1.5 % trapping | 32.9 ± 3.8 % trapping |
| CCCn1c(CC[C@H](N)C(=O)NO)nc2cc(Cl)c(Cl)cc21 [Compound No. 95, (S)-2-amino-4-(5,6-dichloro-1-propyl-1H-benzimidazol-2-yl)-N-hydroxybutyramide] | 102% | 106% | 107% | 108% | 84.2 ± 0.6 % trapping | 65.7 ± 2.2 % trapping |
| N[C@@H](Cc1cn(Cc2c(F)c(F)c(F)c(F)c2F)c2ccccc12)C(=O)NO [Compound No. 104, (S)-2-amino-3-(1-pentafluorophenylmethyl-1H-indol-3-yl)-N-hydroxypropionamide] | 95% | 97% | 94% | 100% | 81.9 ± 2.1 % trapping | 66.5 ± 2.4 % trapping |
| NC(N)=NCCC[C@H](N)C(=O)NO [Compound No. 111, arginine hydroxamate] | 10% | 17% | 75% | 98% | 77.6 ± 0.5 % trapping | 75.2 ± 1.3 % trapping |
| N[C@@H](Cc1ccc(O)cc1)C(=O)NO [Compound No. 112, tyrosine hydroxamate] | 24% | 61% | 99% | 101% | 74.4 ± 2.7 % trapping | 67.8 ± 1.2 % trapping |
| NC(Cc1c[nH]c2ccccc12)C(=O)NO (stereo not drawn) [Compound No. 113, tryptophan hydroxamate] | 42% | 76% | 99% | 102% | 96.2 ± 0.7 % trapping | 75.9 ± 0.9 % trapping |

Source: patent US20080132539A1, “Hydroxamic Acid Derivative And Age Generation Inhibitor Containing The Derivative” (priority 2003, published 2008)
